Reference: patent US20130095512A1, “DEVICE FOR SORTING, CLASSIFYING, AND ASSAYING PARTITION BEHAVIOR OF CELL MEMBRANE BIOMOLECULES AND METHODS BASED THEREON” (Cornell University, priority 2010, published 2013)

Assays:
Type in all cases: physicochemical
[1] = Lipid diffusion measurements by fluorescence recovery after photobleaching (FRAP) in supported lipid bilayers
Experimental: Lipid Diffusion Measurements. Diffusion coefficients of all biomolecule targets in each phase were determined by fluorescence recovery after photobleaching (FRAP). To measure the diffusion coefficient and mobile fraction of the biomolecule in a supported bilayer, liposomes of the same composition used in experiments were prepared with 0.1% of either BODIPY DHPE or GM1. 0.5 mg/ml liposomes were incubated in a PDMS well attached to a piranha cleaned slide. Lipid vesicles were allowed to incubate for 5 minutes, before being rinsed with buffer for one minute. In the case of the POPC-rich phase bilayer, the entire process is at room temperature. In the case of the raft phase bilayer, the prepared vesicle solutions were heated to 65° C. (a temperature above the miscibility transition temperature of the lipid mixture). The warm vesicle solutions were added to wells heated to 65° C. and were later rinsed with the buffer at 65° C. Following the formation of the raft phase bilayer, the heated sample was gently cooled down to room temperature prior measuring the diffusion coefficient.
To aid in focusing on the plane of the bilayer on the microscope, the bilayer was scratched with a dissection tool to remove a thin line of bilayer. Following the scratching step, the bilayer was rinsed again for one minute with buffer to remove any lipids in the bulk that were removed by scratching. A 20 μm diameter spot in the supported lipid bilayer was bleached with a laser for 200 ms. The recovery of the photobleached spot was recorded for 10 minutes for the POPC-rich phase sample and one hour for the raft phase sample. The fluorescence intensity of the bleached spot was determined after background subtraction and normalization for each image. The recovery data was fit using the method of Soumpasis (Zheng Y Z, Foster L J. Biochemical and Proteomic Approaches for the Study of Membrane Microdomains. Proteomics. 2009; 72:12-22). The diffusion coefficient, D, was then calculated using the following equation: D=w^2/4t1/2, where w is the full width at half-maximum of the Gaussian profile of the focused beam. The average diffusion coefficient and mobile fractions were determined from three separate samples of each sample and are listed in Table 2. These values are in line with numerous reports of lipid diffusion in supported bilayers.

[2] = Partitioning kinetics of membrane biomolecules in patterned two-phase coexistent supported lipid bilayers in a microfluidic channel (BPD); settings: for K (eq) partition coefficient: concentration in raft phase over POPC-rich phase from fluorescence intensity after equilibrating 2 hrs; for partitioning between raft phase and POPC-rich phase at equilibrium: flow stopped, equilibrated for 2 hrs; for k+ (association rate constant): from POPC-rich phase (70/20/10 POPC/PSM/Chol) to raft phase, first order, initial slope of NR-α plot; for k− (dissociation rate constant): from raft phase to POPC-rich phase, reversed flow after 2 hrs equilibration; for K (=k+/k−) partition coefficient: ratio of association/dissociation kinetic parameters
Excerpt: Preparation of patterned two-phase coexistent lipid bilayers in a microfluidic device. Supported lipid bilayers (SLBs) are commonly formed by the rupture and self-assembly of large unilamellar lipid vesicles in solution onto glass (Brian, A. A.; McConnell, H. M. Proc. Natl. Acad. Sci. USA 1984, 81, 6159; Johnson, J. M.; Ha, T.; Chu, S.; Boxer, S. G. Biophysical Journal 2002, 83, 3371) or other oxidized supports (Richter, R. P.; Borat, R.; Brisson, A. R. Langmuir 2006, 22, 3497), as illustrated in FIG. 17a. A bilayer is formed during laminar flow conditions instead of under stagnant incubation. Laminar flow is an advantage for patterning heterogeneous bilayers in microfluidic channels because reagents follow streamlines with minimal mixing (Kam, L.; Boxer, S. G. Journal of the American Chemical Society 2000, 122, 12901). Thus, lipid vesicles of different compositions can be sent through the channel on different streamlines and upon rupture will form contiguous, parallel bilayers of different compositions with stable interfaces, if the compositions are chosen so that they are phase stable.
Formation of contiguous patterned membrane and loading and transport of membrane-bound biomolecules. […] A contiguous lipid membrane is formed with POPC-rich phase (70/20/10 molar ratio of POPC/PSM/Chol), raft phase (60/40 molar ratio of PSM/Chol), and the membrane loaded with 1 mol % of Alexa-594 head-labeled GM1 and 1 mol % of head-labeled BODIPY-DHPE doped in the POPC-rich phase.
Partitioning kinetic measurements by monitoring species' concentrations in the raft phase with time. […] The partitioning assay was carried out in three stages: association stage, equilibrium stage, and dissociation stage (FIGS. 13a-c). The experimental procedure and analyses are somewhat analogous to the measurement of adsorption/desorption binding kinetics by surface plasmon resonance (SPR) (Wegner, G. J.; Wark, A. W.; Lee, H. J.; Codner, E.; Saeki, T.; Fang, S.; Corn, R. M. Analytical Chemistry 2004, 76, 5677), except here there is a 2-D planar geometry and observing association/dissociation kinetics of membrane-bound biomolecules to/from a lipid membrane phase along an interface. To obtain association kinetics from POPC-rich phase to raft phase, target species in the POPC-rich phase were brought to a pristine raft phase and the amount entering into the raft phase in the control volume was monitored with time (FIG. 13a, stage 1). After most of the species initially loaded in the channel entered into the main partitioning channel, the next step was to stop the convective flow and wait until the system equilibrated (FIG. 13a, stage 2). Equilibration was confirmed when the concentration profile no longer changed across the channel. Finally, to obtain dissociation kinetics, the net amount of species leaving the raft phase was monitored when the hydrodynamic flow was reversed and fresh POPC-rich phase membrane could be monitored for the re-association of molecules now moving from the raft phase back into the POPC-rich phase (FIG. 13a, stage 3). Three different molecules were tested: Alex594-head-labeled GM1, BODIPY-tail-labeled GM1, and head-labeled BODIPY-DHPE.
Theory of partitioning kinetic analyses. The association/dissociation kinetics of fluorescently-labeled species was analyzed into/from the raft phase using a mass-balance approach. A control volume used for the mass balance is illustrated in FIG. 14. The accumulation of species in the raft phase over time can be represented as:
Association kinetic analysis. To obtain the association kinetic information from the POPC-rich phase to the raft phase, the experiment was operated in such a way so that only the association term, r+, is important and the dissociation term and the convective flow rate terms can be neglected in Equation 1. At the beginning of the experiment, a hydrodynamic force was provided to move the species into the control volume (the white box in FIG. 14). […]

[3] = Stamped patterned bilayers, electric field-induced migration and partitioning into raft regions; settings: stamped raft regions in fluid phase bilayer, FIG. 3
Excerpt: In one embodiment, the separation bilayer is patterned with multiple phases (raft and non-raft) that interact with species differentially to effect a separation analogous to a chromatographic separation strategy (FIG. 3). Here differently partitioning behavior serves to change the mobility of one species relative to the other such that they become separated. FIG. 3 illustrates how patterned bilayers of a BPD can be made and used for separation purposes. In one embodiment of the method for making a BPD, the steps can comprise: (A) Forming a bilayer via vesicle fusion of one composition, then (B) selectively remove by stamping regions where the second phase is desired. Back filling with the second vesicles (B). Stamping out a thin section of bilayer where a third vesicle formulation fuses; these vesicles contain the species to be separated (denoted by the mixture of light and dark circles arranged in a thin rectangle). An electric field can then be applied to induce the mixed charged species to migrate through the bilayer and partition as they sample the different regions of the bilayer. […] The GM1 is labeled with Alexa-594, which makes it, and the rafts in which they are located, appear bright.

[4] = Partitioning in the BPD on CTB binding; settings: CTB binds to GM1
Excerpt: βCD-mediated efflux is used to disrupt raft microdomains and stimulate a change in GM1 partitioning. Changes in partitioning of both GM1 and PLAP can also be induced by binding to CTB and/or antibodies (Kahya N, Brown D A, Schwille P. Raft Partitioning and Dynamic Behavior of Human Placental Alkaline Phosphatase in Giant Unilamellar Vesicles. Biochemistry. 2005; 44:7479-89). Antibody binding is known to cause several-fold enrichment in the raft phase of both targets and detection will be straightforward using fluorescence labels or conjugates.

[5] = POPC-rich phase (70/20/10 POPC/PSM/Chol)

Row | Compound | Diffusion coefficient [1, 5] | Diffusion coefficient ([1]; Raft phase (60/40 PSM/Chol)) | K (eq) partition coefficient [2] | partitioning between raft phase and POPC-rich phase at equilibrium [2] | k+ (association rate constant) [2] | k− (dissociation rate constant) [2] | K (=k+/k−) partition coefficient [2] | partitioning into raft regions [3] | Diffusion coefficient ([1]; POPC-rich phase) | rate for a molecule to diffuse to the interface ([1]; diffusion coefficient/distance, 1 μm away in the POPC-rich phase, rough estimate) | Diffusion coefficient ([1]; raft phase) | diffusion rate from the interface into the middle of the raft patch ([1]; ~100 nm, raft phase, estimate) | rate of the molecule to pass across the interface ([2]; from Table 1) | enrichment in the raft phase on CTB binding [4]
1 | CCCCCCCCCCCCCCCC(=O)OC[C@H](COP(=O)(O)OCCNC(=O)CCc1ccc2n1[B-](F)(F)[N+]1=C(C)C=C(C)C1=C2)OC(=O)CCCCCCCCCCCCCCC.CCN(CC)CC [Head-labeled BODIPY-DHPE, N-(4,4-difluoro-5,7-dimethyl-4-bora-3a,4a-diaza-s-indacene-3-propionyl)-1,2-dihexadecanoyl-sn-glycero-3-phosphoethanolamine, triethylammonium salt] | 0.63 μm^2/s | 0.05 μm^2/s | 0.6 | most of BODIPY-DHPE remains in the POPC-rich phase | 0.57 ± 0.08 μm/min | 0.98 ± 0.04 μm/min | 0.58 | exclusion of BODIPY DHPE lipids from rafts regions |  |  |  |  |  | 
2 | BODIPY®FL C5-ganglioside GM1 [Tail-labeled GM1] | 0.82 μm^2/s | 0.08 μm^2/s | 0.75 |  | 0.64 ± 0.07 μm/min | 0.72 ± 0.05 μm/min | 0.89 |  |  |  |  |  |  | 
3 | bovine brain asialoganglioside-GM1 labeled with Alexa Fluor® 594 hydrazide [Head-labeled GM1] | 0.77 μm^2/s | 0.06 μm^2/s | 1.96 | Most of GM1 partitions to the raft phase | 1.53 ± 0.03 μm/min | 0.85 ± 0.03 μm/min | 1.8 | preferential partitioning of GM1 lipids into raft regions | 0.77 μm^2/sec | 0.77 μm/sec | 0.06 μm^2/sec | 0.6 μm/sec | ~0.025 µm/s | enrichment was observed
